From US8431593B2, “Heteroaryl amide derivatives” (H. Lundbeck A/S, priority 2006, dated 2013)

What follows are molecules tested against T1, P2X7 receptor (Homo sapiens, UniProt Q99572) (assay: P2X7 calcium mobilization assay, high throughput, antagonist activity (Example 4A)). Conditions: 50% decrease in the fluorescence response of cells exposed to 80 μM 2′(3′)-O-(4-benzoyl-benzoyl)adenosine 5′-triphosphate; Example 4A; read-out: IC50.
T1 construct: host or cells: SH-SY5Y
T1 sequence (Q99572 1-595): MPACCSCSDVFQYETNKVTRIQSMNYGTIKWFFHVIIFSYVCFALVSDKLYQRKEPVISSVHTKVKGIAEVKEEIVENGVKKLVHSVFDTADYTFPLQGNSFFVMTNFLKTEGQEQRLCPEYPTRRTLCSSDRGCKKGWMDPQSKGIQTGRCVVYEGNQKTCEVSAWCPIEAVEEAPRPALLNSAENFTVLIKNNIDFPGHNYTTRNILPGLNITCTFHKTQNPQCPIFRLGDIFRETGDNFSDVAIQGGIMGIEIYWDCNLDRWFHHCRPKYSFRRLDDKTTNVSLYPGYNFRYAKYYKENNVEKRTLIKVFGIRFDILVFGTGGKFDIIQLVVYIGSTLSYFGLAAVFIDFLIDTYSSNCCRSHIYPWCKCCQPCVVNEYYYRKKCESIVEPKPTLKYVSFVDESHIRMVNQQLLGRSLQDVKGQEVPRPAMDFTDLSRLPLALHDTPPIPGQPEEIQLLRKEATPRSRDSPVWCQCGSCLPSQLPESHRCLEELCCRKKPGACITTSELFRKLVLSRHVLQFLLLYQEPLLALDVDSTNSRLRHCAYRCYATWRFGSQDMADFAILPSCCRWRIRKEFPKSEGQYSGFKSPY
Type: cell-based
Summary of the method: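 Cells plated at 100,000/well the day before were dye-loaded for 1 h, then incubated 1 h at room temperature with test compound before agonist-triggered calcium mobilization was read on FLIPR Tetra. Maximum RFU was corrected by subtracting the no-agonist control and related to the agonist-control response.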

IC50, < 2 µM:
CC1(C)[C@@H]2CC[C@@H](CNC(=O)c3cccc4nc(CC(=O)N5CCNCC5)cn34)[C@H]1C2 [Compound 555, N-{[(1R,2R,5R)-6,6-dimethylbicyclo[3.1.1]hept-2-yl]methyl}-2-(2-oxo-2-piperazin-1-ylethyl)imidazo[1,2-a]pyridine-5-carboxamide]
CC1CNCCN1C(=O)Cc1cn2c(C(=O)NC[C@@H]3CC[C@@H]4C[C@H]3C4(C)C)cccc2n1 (stereo partly drawn) [Compound 556, N-{[(1R,2R,5R)-6,6-dimethylbicyclo[3.1.1]hept-2-yl]methyl}-2-[2-(2-methylpiperazin-1-yl)-2-oxoethyl]imidazo[1,2-a]pyridine-5-carboxamide]
C[C@H]1CNCCN1C(=O)Cc1cn2c(C(=O)NC[C@@H]3CC[C@@H]4C[C@H]3C4(C)C)cccc2n1 [Compound 557, N-{[(1R,2R,5R)-6,6-dimethylbicyclo[3.1.1]hept-2-yl]methyl}-2-{2-[(2S)-2-methylpiperazin-1-yl]-2-oxoethyl}imidazo [1,2-a]pyridine-5-carboxamide]
CC1(C)[C@@H]2CC[C@@H](CNC(=O)c3cccc4nc(CC(=O)N5C[C@@H]6C[C@H]5CN6)cn34)[C@H]1C2 [Compound 559, 2-{2-[(1S,4S)-2,5-diazabicyclo[2.2.1]hept-2-yl]-2-oxoethyl}-N-{[(1R,2R,5R)-6,6-dimethylbicyclo[3.1.1]hept-2-yl]methyl}imidazo[1,2-a]pyridine-5-carboxamide]
CC1(C)[C@@H]2CC[C@@H](CNC(=O)c3cccc4nc(CC(=O)N5CCCNCC5)cn34)[C@H]1C2 [Compound 560, 2-[2-(1,4-diazepan-1-yl)-2-oxoethyl]-N-{[(1R,2R,5R)-6,6-dimethylbicyclo[3.1.1]hept-2-yl]methyl}imidazo[1,2-a]pyridine-5-carboxamide]
C[C@@H]1CNCCN1C(=O)Cc1cn2c(C(=O)NC[C@@H]3CC[C@@H]4C[C@H]3C4(C)C)cccc2n1 [Compound 561, N-{[(1R,2R,5R)-6,6-dimethylbicyclo[3.1.1]hept-2-yl]methyl}-2-{2-[(2R)-2-methylpiperazin-1-yl]-2-oxoethyl}imidazo[1,2-a]pyridine-5-carboxamide]
CC(C)[C@H]1CN(C(=O)Cc2cn3c(C(=O)NC[C@@H]4CC[C@@H]5C[C@H]4C5(C)C)cccc3n2)CCN1 [Compound 562, N-{[(1R,2R,5R)-6,6-dimethylbicyclo[3.1.1]hept-2-yl]methyl}-2-{2-[(3S)-3-isopropylpiperazin-1-yl]-2-oxoethyl}imidazo[1,2-a]pyridine-5-carboxamide]
C[C@H]1CN(C(=O)Cc2cn3c(C(=O)NC[C@@H]4CC[C@@H]5C[C@H]4C5(C)C)cccc3n2)CCN1 [Compound 563, N-{[(1R,2R,5R)-6,6-dimethylbicyclo[3.1.1]hept-2-yl]methyl}-2-{2-[(3S)-3-methylpiperazin-1-yl]-2-oxoethyl}imidazo[1,2-a]pyridine-5-carboxamide]
C[C@@H]1CN(C(=O)Cc2cn3c(C(=O)NC[C@@H]4CC[C@@H]5C[C@H]4C5(C)C)cccc3n2)CCN1 [Compound 564, N-{[(1R,2R,5R)-6,6-dimethylbicyclo[3.1.1]hept-2-yl]methyl}-2-{2-[(3R)-3-methylpiperazin-1-yl]-2-oxoethyl}imidazo[1,2-a]pyridine-5-carboxamide]
CN(C(=O)Cc1cn2c(C(=O)NC[C@@H]3CC[C@@H]4C[C@H]3C4(C)C)cccc2n1)C1CCCNC1 (stereo partly drawn) [Compound 565, N-{[(1R,2R,5R)-6,6-dimethylbicyclo[3.1.1]hept-2-yl]methyl}-2-{2-[methyl(piperidin-3-yl)amino]-2-oxoethyl}imidazo[1,2-a]pyridine-5-carboxamide]
